Data: US20200405697A1, “Antitumor Agent” (Taiho Pharmaceutical Co., Ltd, priority 2017, published 2020)

Assays:
[1] = system: MV-4-11 (Human blood cancer cell line); assay: Effect of combination of sulfonamide compound and other antitumor agent (CellTiter-Glo, combination index): MV-4-11
Procedure: Each cell line was seeded at 90 L/well to a 96-well culture plate (Thermo Fisher Scientific, Inc.) according to the above tables. The cell-seeded plate was cultured in an incubator set to 37° C. and 500 CO2. On the day following seeding, varying concentrations of the sulfonamide compound and the other antitumor agent were added in combination to the cells. […] The serial dilutions of each compound, or DW was added at 5μL/well to the plate such that each compound and DW, or the sulfonamide compound and the other antitumor agent were combined. […] The plate after the addition was cultured at 37° C. for 3 days under 5% CO2 conditions.
Three days later, CellTiter-Glo(R) 2.0 Reagent (Promega Corporation) was added at 100 μL/well, and the amount of luminescence was measured using a plate reader EnSpire(R) Multimode Plate Reader (PerkinElmer Co., Ltd.).
An average value from 3 wells was calculated as to each drug condition from the obtained data, and cell survival rate normalized against control wells supplemented with the vehicle (DW) was calculated. A Fa (fractional inhibition) value was calculated by subtracting the cell survival rate from 1.

GB-1 cells = assay: Cell proliferation inhibitory effect on human cancer cell lines: GB-1; type: cell-based; settings: GB-1, Glioblastoma, DMEM + 10% FBS, 3000 cell/well
Procedure: Human derived breast cancer cell line HCC 1806 cells (American Type Culture Collection, ATCC) were daily passaged at a cell density not exceeding 80% in ATCC recommended Roswell Park Memorial Institute medium (RPMI-1640) containing 10% fetal bovine serum (FBS). In order to start the test of cell proliferation inhibitory activity, HCC 1806 cells were suspended in the above medium, after seeing at 180 μL in each well of a 96-well flat bottom plate so that the number of cells per well was 2,000, the cells were cultured at 37° C. for 1 day in an incubator containing 5% carbon dioxide gas.
On the next day, the Example compound was dissolved in DMSO, and 20 μL of a drug additive solution diluted serially with distilled water to 10 times of the final concentration was added to each well of the culture plate of the cells, and the cells were cultured at 37° C. for 72 hours in an incubator containing 5% carbon dioxide gas. After culturing for 72 hours, 20 μL of glutaraldehyde was added to each well and allowed to stand for 30 minutes, then the plate was washed 10 times with water and was dried. 100 μL of a stain solution (0.05% crystal violet in a 20% methanol solution) was added to each well and allowed to stand for 30 minutes, then the plate was washed 10 times with water and was dried. 100 μL of an extract solution (0.1 N NaH2PO4: 100% ethanol=1:1) was added to each well and mixed, and the mixture was measured at a wavelength of 540 nm using a plate reader (MTP-450 manufactured by Corona Electric Co., Ltd.).
The growth inhibition rate was calculated from the following formula, and the concentration (IC50 (μM)) of a compound inhibiting 50% was determined.
According to the method of Test Example 2, the cell proliferation inhibitory effect on various cancer cell lines as described in Table 24 was evaluated. […]

[2] = Example Compound 1 121 nM + Cytarabine 116 nM, molar ratio 1:0.9614
[3] = Example Compound 1 121 nM + Guadecitabine 11.9 nM, molar ratio 1:0.09807
[4] = Example Compound 1 182 nM + Cytarabine 175 nM, molar ratio 1:0.9614
[5] = Example Compound 1 182 nM + Decitabine 50.2 nM, molar ratio 1:0.2758
[6] = Example Compound 1 182 nM + Fludarabine nucleoside 4110 nM, molar ratio 1:22.56
[7] = Example Compound 1 182 nM + Guadecitabine 17.8 nM, molar ratio 1:0.09807
[8] = Example Compound 1 273 nM + Decitabine 75.3 nM, molar ratio 1:0.2758
[9] = Example Compound 1 273 nM + Fludarabine nucleoside 6160 nM, molar ratio 1:22.56
[10] = Example Compound 1 273 nM + Guadecitabine 26.8 nM, molar ratio 1:0.09807
[11] = Example Compound 1 409 nM + Cytarabine 393 nM, molar ratio 1:0.9614
[12] = Example Compound 1 409 nM + Decitabine 113 nM, molar ratio 1:0.2758
[13] = Example Compound 1 409 nM + Guadecitabine 40.1 nM, molar ratio 1:0.09807
[14] = Example Compound 1 613 nM + Decitabine 169 nM, molar ratio 1:0.2758
[15] = Example Compound 1 613 nM + Decitabine 589 nM, molar ratio 1:0.2758
[16] = Example Compound 1 613 nM + Guadecitabine 60.1 nM, molar ratio 1:0.09807
[17] = Example Compound 1 920 nM + Decitabine 254 nM, molar ratio 1:0.2758
[18] = Example Compound 1 920 nM + Guadecitabine […], molar ratio 1:0.09807

Cc1ccc(F)c([C@@H](C)[C@H](NS(=O)(=O)c2ccc(Br)cc2C(N)=O)c2n[nH]c(=O)o2)c1C [Example 1, 5-bromo-2-(N-((1 S,2R)-2-(6-fluoro-2,3-dimethylphenyl)-1-(5-oxo-4,5-dihydro-1,3,4-oxadiazol-2-yl)propyl)sulfamoyl)benzamide]
CI value [1, 2]: 0.683 | Fa value [1, 2]: 0.1611 | CI value [1, 3]: 0.706 | Fa value [1, 3]: 0.2186 | CI value [1, 4]: 0.603 | Fa value [1, 4]: 0.4508 | CI value [1, 5]: 0.643 | Fa value [1, 5]: 0.3873 | CI value [1, 6]: 0.783 | Fa value [1, 6]: 0.1868 | CI value [1, 7]: 0.741 | Fa value [1, 7]: 0.3225 | CI value [1, 8]: 0.680 | Fa value [1, 8]: 0.5342 | CI value [1, 9]: 0.592 | Fa value [1, 9]: 0.8795 | CI value [1, 10]: 0.705 | Fa value [1, 10]: 0.5192 | CI value [1, 11]: 0.538 | Fa value [1, 11]: 0.9443 | CI value [1, 12]: 0.667 | Fa value [1, 12]: 0.7570 | CI value [1, 13]: 0.658 | Fa value [1, 13]: 0.7788 | CI value [1, 14]: 0.672 | Fa value [1, 14]: 0.9292 | CI value [1, 15]: 0.419 | Fa value [1, 15]: 0.9960 | CI value [1, 16]: 0.671 | Fa value [1, 16]: 0.9347 | CI value [1, 17]: 0.666 | Fa value [1, 17]: 0.9900 | CI value [1, 18]: 0.639 | Fa value [1, 18]: 0.9921 | IC50 (GB-1 cells): 1560 nM
